# Assays:
# [1] = tested on: HL-60; experiment: Cytotoxicity against human HL60 cells after 48 hrs by WST8 assay; format: functional, cell-based; settings: HL-60, 48 h
# [2] = tested on: HeLa; experiment: Cytotoxicity against human HeLa cells after 48 hrs by WST8 assay; format: functional, cell-based
# [3] = tested on: HeLa; experiment: Cytotoxicity against human HeLa cells at 100 uM after 48 hrs by WST8 assay; format: functional
# [4] = tested on: HL-60; experiment: Cytotoxicity against human HL60 cells at 100 uM after 48 hrs by WST8 assay; format: functional; settings: HL-60, 48 h
# [5] = tested on: HeLa; experiment: Ratio of IC50 for human HeLa cells to IC50 for human HL60 cells; format: functional
compound,measurement,setting,value
O[C@@H](c1ccccc1)[C@H]1CO[C@H](c2ccccc2)[C@@H](C/C=C/c2ccccc2F)C1,IC50,[1],9.53 µM
same,IC50,[2],9.73 µM
COc1ccc(/C=C/C[C@H]2C[C@@H]([C@@H](O)c3ccccc3)CO[C@@H]2c2ccc(OC)c(OC)c2)cc1OC,IC50,[2],15.5 µM
COc1ccc(/C=C/C[C@@H]2C[C@@H]([C@@H](OC(C)=O)c3ccc(OC)c(OC)c3)CO[C@H]2c2ccc(OC)c(OC)c2)cc1OC,inhibition at 100 µM,[3],48%
same,IC50,[2],> 100 µM
Oc1cccc(/C=C/C[C@H]2C[C@@H]([C@@H](O)c3ccccc3)CO[C@@H]2c2ccccc2)c1,IC50,[1],12.8 µM
same,IC50,[2],18.6 µM
COc1cccc(/C=C/C[C@@H]2C[C@@H]([C@@H](O)c3ccc(OC)c(OC)c3)CO[C@H]2c2ccc(OC)c(OC)c2)c1,IC50,[2],16.4 µM
C=CC[C@H]1C[C@@H]([C@@H](O)c2ccccc2)CO[C@@H]1c1ccccc1,IC50,[1],36 µM
same,IC50,[2],25.4 µM
COc1cccc(/C=C/C[C@H]2C[C@@H]([C@@H](O)c3ccc(OC)c(OC)c3)CO[C@@H]2c2ccc(OC)c(OC)c2)c1,IC50,[2],14 µM
CCCCCC/C=C/C[C@H]1C[C@@H]([C@@H](O)c2ccccc2)CO[C@@H]1c1ccccc1,IC50,[1],4.99 µM
same,IC50,[2],7.4 µM
COc1ccc(/C=C/C[C@H]2C[C@@H]([C@@H](OC(C)=O)c3ccc(OC)c(OC)c3)CO[C@@H]2c2ccc(OC)c(OC)c2)cc1OC,inhibition at 100 µM,[3],29%
same,IC50,[2],> 100 µM
COc1ccc([C@H]2OC[C@H]([C@@H](O)c3ccc(OC)c(OC)c3)C[C@@H]2C/C=C/c2ccccc2)cc1OC,IC50,[2],14.8 µM
COc1cccc([C@H]2OC[C@H]([C@@H](O)c3ccc(OC)c(OC)c3)C[C@@H]2C/C=C/c2ccc(OC)c(OC)c2)c1,IC50,[2],21.8 µM
COc1ccc(/C=C/C[C@H]2C[C@@H]([C@@H](OC)c3ccc(OC)c(OC)c3)CO[C@@H]2c2ccc(OC)c(OC)c2)cc1OC,inhibition at 100 µM,[3],4.8%
same,IC50,[2],> 100 µM
COc1ccc(/C=C/C[C@H]2C[C@H]([C@H](O)c3ccc(OC)c(OC)c3)CO[C@@H]2c2ccc(OC)c(OC)c2)cc1OC,IC50,[1],23.5 µM
same,IC50,[2],34.6 µM
COc1ccc(/C=C/C[C@H]2C[C@@H]([C@@H](O)c3ccc(OC)c(OC)c3)CO[C@@H]2c2ccccc2)cc1OC,IC50,[2],17 µM
COc1ccc(/C=C/C[C@H]2C[C@@H]([C@@H](O)c3ccccc3)CO[C@@H]2c2ccccc2)cc1,IC50,[1],9.01 µM
same,IC50,[2],8.3 µM
COc1ccc(/C=C/C[C@H]2C[C@@H]([C@@H](O)c3ccc(OC)c(OC)c3)CO[C@@H]2c2ccc(OC)c(OC)c2)cc1,IC50,[2],12.2 µM
COc1ccc([C@H](O)[C@H]2CO[C@H](c3ccc(OC)c(OC)c3)[C@@H](C/C=C/c3ccc(OC)c(OC)c3)C2)cc1,IC50,[2],46 µM
COc1ccccc1/C=C/C[C@H]1C[C@@H]([C@@H](O)c2ccccc2)CO[C@@H]1c1ccccc1,IC50,[1],10.1 µM
same,IC50,[2],14.7 µM
COc1cccc([C@H](O)[C@H]2CO[C@H](c3ccc(OC)c(OC)c3)[C@@H](C/C=C/c3ccc(OC)c(OC)c3)C2)c1,IC50,[2],21.2 µM
COc1ccc(/C=C/C[C@@H]2C[C@@H]([C@@H](O)c3ccc(OC)c(OC)c3)CO[C@H]2c2ccc(OC)c(OC)c2)cc1,IC50,[2],17.1 µM
O=[N+]([O-])c1cccc(/C=C/C[C@H]2C[C@@H]([C@@H](O)c3ccccc3)CO[C@@H]2c2ccccc2)c1,IC50,[1],6.35 µM
same,IC50,[2],7.85 µM
O[C@@H](c1ccccc1)[C@H]1CO[C@H](c2ccccc2)[C@@H](C/C=C/C2CCCCC2)C1,IC50,[1],6.26 µM
same,IC50,[2],6.44 µM
O[C@@H](c1ccccc1)[C@H]1CO[C@H](c2ccccc2)[C@@H](C/C=C/c2cccnc2)C1,inhibition at 100 µM,[3],4%
same,IC50,[1],> 100 µM
same,IC50,[2],> 100 µM
same,inhibition at 100 µM,[4],48%
O[C@@H](c1ccccc1)[C@H]1CO[C@H](c2ccccc2)[C@@H](C/C=C/c2ccncc2)C1,inhibition at 100 µM,[3],34%
same,IC50,[1],> 100 µM
same,IC50,[2],> 100 µM
same,inhibition at 100 µM,[4],13%
COc1cccc([C@H](O)[C@H]2CO[C@@H](c3ccc(OC)c(OC)c3)[C@H](C/C=C/c3ccc(OC)c(OC)c3)C2)c1,IC50,[2],18.6 µM
O[C@@H](c1ccccc1)[C@H]1CO[C@H](c2ccccc2)[C@@H](C/C=C/c2ccc(F)cc2)C1,IC50,[1],8.11 µM
same,IC50,[2],8.34 µM
COc1ccc([C@H]2OC[C@H]([C@@H](O)c3ccc(OC)c(OC)c3)C[C@@H]2C/C=C/c2ccc(OC)c(OC)c2)cc1,IC50,[2],46.7 µM
Oc1ccc(/C=C/C[C@H]2C[C@@H]([C@@H](O)c3ccccc3)CO[C@@H]2c2ccccc2)cc1,IC50,[1],7.38 µM
same,IC50,[2],14.4 µM
COc1ccc(/C=C/C[C@@H]2C[C@@H]([C@@H](OC)c3ccc(OC)c(OC)c3)CO[C@H]2c2ccc(OC)c(OC)c2)cc1OC,inhibition at 100 µM,[3],34%
same,IC50,[2],> 100 µM
COc1ccc([C@@H]2OC[C@H]([C@@H](O)c3ccc(OC)c(OC)c3)C[C@H]2C/C=C/c2ccc(OC)c(OC)c2)cc1,IC50,[2],29.2 µM
O=[N+]([O-])c1ccccc1/C=C/C[C@H]1C[C@@H]([C@@H](O)c2ccccc2)CO[C@@H]1c1ccccc1,IC50,[1],7.25 µM
same,IC50,[2],11.8 µM
COc1ccc(/C=C/C[C@@H]2C[C@@H]([C@@H](O)c3ccc(OC)c(OC)c3)CO[C@H]2c2ccc(OC)c(OC)c2)cc1OC,IC50,[1],26 µM
same,IC50,[2],30.6 µM
O[C@@H](c1ccccc1)[C@H]1CO[C@H](c2ccccc2)[C@@H](C/C=C/c2cccc(F)c2)C1,IC50,[1],9.17 µM
same,IC50,[2],8.38 µM
COc1ccc(/C=C/C[C@@H]2C[C@H]([C@H](O)c3ccc(OC)c(OC)c3)CO[C@H]2c2ccc(OC)c(OC)c2)cc1OC,IC50,[2],28.7 µM
COc1ccc([C@H](O)[C@H]2CO[C@@H](c3ccc(OC)c(OC)c3)[C@H](C/C=C/c3ccc(OC)c(OC)c3)C2)cc1,IC50,[2],32.2 µM
Oc1ccccc1/C=C/C[C@H]1C[C@@H]([C@@H](O)c2ccccc2)CO[C@@H]1c1ccccc1,IC50,[1],10.8 µM
same,IC50,[2],21.8 µM
O=[N+]([O-])c1ccc(/C=C/C[C@H]2C[C@@H]([C@@H](O)c3ccccc3)CO[C@@H]2c2ccccc2)cc1,IC50,[1],4.88 µM
same,IC50,[2],12.4 µM
COc1cccc([C@@H]2OC[C@H]([C@@H](O)c3ccc(OC)c(OC)c3)C[C@H]2C/C=C/c2ccc(OC)c(OC)c2)c1,IC50,[2],30.1 µM
Cc1ccc(/C=C/C[C@H]2C[C@@H]([C@@H](O)c3ccccc3)CO[C@@H]2c2ccccc2)cc1C,IC50,[1],9.88 µM
same,IC50,[2],10 µM
O[C@@H](c1ccccc1)[C@H]1CO[C@H](c2ccccc2)[C@@H](C/C=C/c2ccccn2)C1,IC50,[1],36.4 µM
same,IC50,[2],33.8 µM
O[C@@H](c1ccccc1)[C@H]1CO[C@H](c2ccccc2)[C@@H](C/C=C/c2ccccc2)C1,Ratio IC50,[5],1.5
same,IC50,[1],7.04 µM
same,IC50,[2],6.06 µM
COc1ccc(/C=C/C[C@@H]2C[C@@H]([C@@H](O)c3ccc(OC)c(OC)c3)CO[C@H]2c2ccccc2)cc1OC,IC50,[2],16.1 µM
COc1ccc(CCC[C@H]2C[C@@H]([C@@H](O)c3ccc(OC)c(OC)c3)CO[C@@H]2c2ccc(OC)c(OC)c2)cc1OC,IC50,[2],37.7 µM
COc1ccc([C@H](O)[C@H]2CO[C@@H](c3ccc(OC)c(OC)c3)[C@H](C/C=C/c3ccccc3)C2)cc1OC,IC50,[2],16.1 µM
O[C@@H](c1ccccc1)[C@H]1CO[C@H](c2ccccc2)[C@@H](C/C=C/C2CCCC2)C1,IC50,[1],9.06 µM
same,IC50,[2],9.33 µM
COc1cccc(/C=C/C[C@H]2C[C@@H]([C@@H](O)c3ccccc3)CO[C@@H]2c2ccccc2)c1,IC50,[1],9.62 µM
same,IC50,[2],10.9 µM
COc1ccc(/C=C/C[C@H]2C[C@@H]([C@@H](O)c3ccc(OC)c(OC)c3)CO[C@@H]2c2ccc(OC)c(OC)c2)cc1OC,IC50,[1],34.7 µM
same,IC50,[2],23.8 µM
COc1ccc(/C=C/C[C@@H]2C[C@@H]([C@@H](O)c3ccccc3)CO[C@H]2c2ccc(OC)c(OC)c2)cc1OC,IC50,[2],16.8 µM
COc1ccc(CCC[C@@H]2C[C@@H]([C@@H](O)c3ccc(OC)c(OC)c3)CO[C@H]2c2ccc(OC)c(OC)c2)cc1OC,IC50,[2],35.7 µM
